{
  "source": "patent US6616925B1",
  "about": "“Combined preparation for the treatment of neoplasic diseases or of infectious diseases” (I.D.M. Immuno-Designed Molecules, priority 1998, dated 2003)",
  "key": {"[1]": {"system": "human carcinoma solid tumors", "assay": "nude mice inoculated with human carcinoma solid tumors, subcutaneous tumor size", "format": "in vivo", "conditions": "after macrophage treatment; drugs used alone or in combination", "source_text": "2) Nude mice inoculated with human carcinoma solid tumors are, initially treated with cytotoxic drugs (Adriamycin, Etretinate, Taxotere), used alone or in combination."}, "solid carcinoma": {"system": "solid carcinoma", "assay": "C57B16 mice bearing solid carcinoma, apoptosis-inducing drug then monocyte derived cells", "format": "in vivo", "conditions": "drug intraperitonealy, after 24 h 0.1 million monocyte derived cells in tumor periphery; observed only after combined treatment", "experimental": "7) C57B16 mice bearing solid carcinoma are injected intraperitonealy with a drug inducing apoptosis (1 mg mitomycin C or 0.1 mg sodium butyrate). After 24 h, mice are injected with 0.1 million monocyte derived cells in tumor periphery. […] In another protocol, carcinoma cells are treated in vitro with 0.01 mM sodium butyrate, and then submitted to phagocytosis by murine monocyte derived cells."}},
  "data": [
    {"compound": "COc1cccc2c1C(=O)c1c(O)c3c(c(O)c1C2=O)C[C@@](O)(C(=O)CO)C[C@@H]3O[C@H]1C[C@H](N)[C@H](O)[C@H](C)O1", "note": "[Adriamycin]", "values": [
      {"measurement": "antitumoral effect of second treatment with the same cytotoxic drugs (subcutaneous tumor size)", "setting": "[1]", "value": "further antitumoral effect"}
    ]},
    {"compound": "CCOC(=O)/C=C(C)/C=C/C=C(C)/C=C/c1c(C)cc(OC)c(C)c1C", "note": "[Etretinate]", "values": [
      {"measurement": "antitumoral effect of second treatment with the same cytotoxic drugs (subcutaneous tumor size)", "setting": "[1]", "value": "further antitumoral effect"}
    ]},
    {"compound": "CC(=O)O[C@@]12CO[C@@H]1C[C@H](O)[C@@]1(C)C(=O)[C@H](O)C3=C(C)[C@@H](OC(=O)[C@H](O)[C@@H](NC(=O)OC(C)(C)C)c4ccccc4)C[C@@](O)([C@@H](OC(=O)c4ccccc4)[C@H]21)C3(C)C", "note": "[Taxotere]", "values": [
      {"measurement": "antitumoral effect of second treatment with the same cytotoxic drugs (subcutaneous tumor size)", "setting": "[1]", "value": "further antitumoral effect"}
    ]},
    {"compound": "CO[C@@]12[C@H](COC(N)=O)C3=C(C(=O)C(C)=C(N)C3=O)N1C[C@@H]1N[C@@H]12", "note": "[mitomycin C]", "values": [
      {"measurement": "tumor outcome after combined treatment", "setting": "solid carcinoma", "value": "Tumor regression and protection against further tumor challenge"}
    ]},
    {"compound": "CCCC(=O)[O-].[Na+]", "note": "[sodium butyrate]", "values": [
      {"measurement": "tumor outcome after combined treatment", "setting": "solid carcinoma", "value": "Tumor regression and protection against further tumor challenge"}
    ]}
  ]
}
